Results from patent US10774102B2, “Galactoside inhibitor of galectins” (Galecto Biotech AB, priority 2015, dated 2020).
pKd: −log10 of the molar value.

molecular target: galectin-3 (Homo sapiens (Human), UniProt P17931); assay: Fluorescence anisotropy assay of galectin-3 affinity (compound inhibits galectin binding to a fluorescein tagged saccharide probe); conditions: high affinity probe, 50 nM galectin-3, 100 nM albumin
Description: 100 nM albumin was included as a carrier to prevent protein loss at such low concentration of galectin.

Sequence of galectin-3 (P17931 whole entry): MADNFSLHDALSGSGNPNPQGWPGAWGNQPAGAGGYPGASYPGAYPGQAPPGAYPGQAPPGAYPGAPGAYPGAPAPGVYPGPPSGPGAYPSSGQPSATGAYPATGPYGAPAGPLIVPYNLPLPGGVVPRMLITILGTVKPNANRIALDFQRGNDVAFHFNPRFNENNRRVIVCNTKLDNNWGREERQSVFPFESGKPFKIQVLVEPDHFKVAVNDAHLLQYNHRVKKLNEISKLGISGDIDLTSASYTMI

Compound | pKd
OC[C@H]1O[C@H](SC2CCCCC2)[C@H](O)[C@@H](n2cc(-c3cc(F)c(F)c(F)c3)nn2)[C@H]1O [Example 35, Cyclohexyl 3-deoxy-3-[4-(3,4,5-trifluorophenyl)-1H-1,2,3-triazol-1-yl]-1-thio-α-D-galactopyranoside] | 6.36
O=C(N[C@@H]1C(O)[C@@H](Sc2ccc(Cl)c(Cl)c2)OC(CO)[C@@H]1O)c1cc(F)c(F)c(F)c1 (stereo partly drawn) [Example 96, 3,4-dichlorophenyl-3-deoxy-3-(3,4,5-trifluorobenzamido)-1-thio-α-D-galactopyranoside] | 5.46
OCC1O[C@H](SCCc2ccccc2)C(O)[C@@H](n2cc(-c3cc(F)c(F)c(F)c3)nn2)[C@H]1O (stereo partly drawn) [Example 40, 2-Phenethyl 3-deoxy-3-[4-(3,4,5-trifluorophenyl)-1H-1,2,3-triazol-1-yl]-1-thio-α-D-galactopyranoside] | 6.32
O=S(=O)(c1ccc(Cl)c(Cl)c1)[C@H]1O[C@H](CO)[C@H](O)[C@H](n2cc(-c3c(F)c(F)c(F)c(F)c3F)nn2)[C@H]1O [Example 53, 3,4-Dichlorophenyl 3-deoxy-3-[4-(2,3,4,5,6-pentafluorophenyl)-1H-1,2,3-triazol-1-yl]-α-D-galactopyranosyl sulfone] | 7.89
[O-][S+](c1cncc(Cl)c1)[C@H]1OC(CO)[C@H](O)[C@H](n2cc(-c3cc(F)c(F)c(F)c3)nn2)C1O (single isomer, unassigned; isomer 2) [Example 94, 5-Chloropyridin-3-yl 3-deoxy-3-[4-(3,4,5-trifluorophenyl)-1H-1,2,3-triazol-1-yl]-α-D-galactopyranosyl sulfoxide, isomer 2] | 7.39
OC[C@H]1O[C@H](Oc2ccc(Cl)cc2)[C@H](O)[C@@H](n2cc(-c3cc(F)c(F)c(F)c3)nn2)[C@H]1O [Example 34, 4-Chlorophenyl 3-deoxy-3-[4-(3,4,5-trifluorophenyl)-1H-1,2,3-triazol-1-yl]-α-D-galactopyranoside] | 6.24
Cc1cccc(C)c1S[C@H]1O[C@H](CO)[C@H](O)[C@H](n2cc(-c3cc(F)c(F)c(F)c3)nn2)[C@H]1O [Example 17, 2,6-Dimethylphenyl 3-deoxy-3-[4-(3,4,5-trifluorophenyl)-1H-1,2,3-triazol-1-yl]-1-thio-α-D-galactopyranoside] | 5.80
CCCC(=O)c1cn([C@@H]2[C@@H](O)[C@@H](Sc3ccc(Cl)c(Cl)c3)O[C@H](CO)[C@@H]2O)nn1 [Example 102, 3,4-Dichlorophenyl 3-deoxy-3-[4-(propyl-carbonyl)-1H-1,2,3-triazol-1-yl]-1-thio-α-D-galactopyranoside] | 6.00
OC[C@H]1O[C@H](Oc2cccc(Cl)c2)[C@H](O)[C@@H](n2cc(-c3cc(F)c(F)c(F)c3)nn2)[C@H]1O [Example 33, 3-Chlorophenyl 3-deoxy-3-[4-(3,4,5-trifluorophenyl)-1H-1,2,3-triazol-1-yl]-α-D-galactopyranoside] | 6.60
[O-][S+](c1ccc(Cl)cc1)[C@H]1O[C@H](CO)[C@H](O)[C@H](n2cc(-c3cc(F)c(F)c(F)c3)nn2)[C@H]1O (stereo partly drawn) [Example 26, 4-Chlorophenyl 3-deoxy-3-[4-(3,4,5-trifluorophenyl)-1H-1,2,3-triazol-1-yl]-α-D-galactopyranosyl sulfoxide] | 6.11
[O-][S+](c1ccc(Cl)c(Cl)c1)[C@H]1O[C@H](CO)[C@H](O)[C@H](n2cc(-c3cc(F)c(F)c(F)c3)nn2)[C@H]1O (stereo partly drawn) [Example 24, 3,4-Dichlorophenyl 3-deoxy-3-[4-(3,4,5-trifluorophenyl)-1H-1,2,3-triazol-1-yl]-α-D-galactopyranosyl sulfoxide] | 8.00
OC[C@H]1O[C@H](Sc2cc(Cl)ccc2Cl)[C@H](O)[C@@H](n2cc(-c3cc(F)c(F)c(F)c3)nn2)[C@H]1O [Example 37, 2,5-Dichlorophenyl 3-deoxy-3-[4-(3,4,5-trifluorophenyl)-1H-1,2,3-triazol-1-yl]-1-thio-α-D-galactopyranoside] | 7.08
OC[C@H]1O[C@H](Sc2cccc(Br)c2)[C@H](O)[C@@H](n2cc(-c3cc(F)c(F)c(F)c3)nn2)[C@H]1O [Example 2, 3-Bromophenyl 3-deoxy-3-[4-(3,4,5-trifluorophenyl)-1H-1,2,3-triazol-1-yl]-1-thio-α-D-galactopyranoside] | 7.43
COc1ccc(Cl)cc1S[C@H]1OC(CO)[C@H](O)[C@H](n2cc(-c3cc(F)c(F)c(F)c3)nn2)C1O (stereo partly drawn) [Example 65, 5-Chloro-2-methoxyphenyl 3-deoxy-1-thio-3-[4-(3,4,5-trifluorophenyl)-1H-1,2,3-triazol-1-yl]-α-D-galactopyranoside] | 7.08
[O-][S+](c1ccc(Cl)c(Cl)c1)[C@H]1O[C@H](CO)[C@H](O)[C@H](n2cc(-c3c(F)c(F)c(F)c(F)c3F)nn2)[C@H]1O (stereo partly drawn) [Example 42, 3,4-Dichlorophenyl 3-deoxy-3-[4-(2,3,4,5,6-pentafluorophenyl)-1H-1,2,3-triazol-1-yl]-α-D-galactopyranosyl sulfoxide] | 8.70
OCC1O[C@H](Sc2ccc3ccccc3c2)C(O)[C@@H](n2cc(-c3cc(F)c(F)c(F)c3)nn2)[C@H]1O (stereo partly drawn) [Example 12, 2-Naphtyl 3-deoxy-3-[4-(3,4,5-trifluorophenyl)-1H-1,2,3-triazol-1-yl]-1-thio-α-D-galactopyranoside] | 6.74
OC[C@H]1O[C@H](Sc2ccc(F)c(Cl)c2)[C@H](O)[C@@H](n2cc(-c3cc(F)c(F)c(F)c3)nn2)[C@H]1O [Example 28, 3-Chloro-4-fluorophenyl 3-deoxy-3-[4-(3,4,5-trifluorophenyl)-1H-1,2,3-triazol-1-yl]-1-thio-α-D-galactopyranoside] | 7.32
[O-][S+](c1cncc(Br)c1)[C@H]1O[C@H](CO)[C@H](O)[C@H](n2cc(-c3cc(F)c(F)c(F)c3)nn2)[C@H]1O (single isomer, unassigned; isomer 1) [Example 90, 5-Bromopyridin-3-yl 3-deoxy-3-[4-(3,4,5-trifluorophenyl)-1H-1,2,3-triazol-1-yl]-α-D-galactopyranosyl sulfoxide, isomer 1] | 7.55
Cc1cccc(S[C@H]2O[C@H](CO)[C@H](O)[C@H](n3cc(-c4cc(F)c(F)c(F)c4)nn3)[C@H]2O)c1 [Example 13, 3-Methylphenyl 3-deoxy-3-[4-(3,4,5-trifluorophenyl)-1H-1,2,3-triazol-1-yl]-1-thio-α-D-galactopyranoside] | 6.62
OC[C@H]1O[C@H](Oc2ccc(Cl)c(Cl)c2)[C@H](O)[C@@H](n2cc(-c3cc(F)c(F)c(F)c3)nn2)[C@H]1O [Example 22, 3,4-Dichlorophenyl 3-deoxy-3-[4-(3,4,5-trifluorophenyl)-1H-1,2,3-triazol-1-yl]-α-D-galactopyranoside] | 6.31
OC[C@H]1O[C@H](Sc2ccc(Cl)cc2Cl)[C@H](O)[C@@H](n2cc(-c3cc(F)c(F)c(F)c3)nn2)[C@H]1O [Example 5, 2,4-Dichlorophenyl 3-deoxy-3-[4-(3,4,5-trifluorophenyl)-1H-1,2,3-triazol-1-yl]-1-thio-α-D-galactopyranoside] | 6.19
OC[C@H]1O[C@H](Sc2cccc(OC(F)(F)F)c2)[C@H](O)[C@@H](n2cc(-c3cc(F)c(F)c(F)c3)nn2)[C@H]1O [Example 20, 3-(Trifluoromethoxy)phenyl 3-deoxy-3-[4-(3,4,5-trifluorophenyl)-1H-1,2,3-triazol-1-yl]-1-thio-α-D-galactopyranoside] | 6.30
O=S(=O)(c1ccc(Cl)c(Cl)c1)[C@H]1O[C@H](CO)[C@H](O)[C@H](n2cc(-c3cc(F)c(F)c(F)c3)nn2)[C@H]1O [Example 25, 3,4-Dichlorophenyl 3-deoxy-3-[4-(3,4,5-trifluorophenyl)-1H-1,2,3-triazol-1-yl]-α-D-galactopyranosyl sulfone] | 7.21
Cc1ccc(S[C@H]2O[C@H](CO)[C@H](O)[C@H](n3cc(-c4cc(F)c(F)c(F)c4)nn3)[C@H]2O)cc1C [Example 1, 3,4-Dimethylphenyl 3-deoxy-3-[4-(3,4,5-trifluorophenyl)-1H-1,2,3-triazol-1-yl]-1-thio-α-D-galactopyranoside] | 6.82
OC[C@H]1O[C@H](Sc2cccc(C(F)(F)F)c2)[C@H](O)[C@@H](n2cc(-c3cc(F)c(F)c(F)c3)nn2)[C@H]1O [Example 14, 3-(Trifluoromethyl)phenyl 3-deoxy-3-[4-(3,4,5-trifluorophenyl)-1H-1,2,3-triazol-1-yl]-1-thio-α-D-galactopyranoside] | 6.89
OC[C@H]1O[C@H](Sc2ccc(Cl)cc2)[C@H](O)[C@@H](n2cc(-c3cc(F)c(F)c(F)c3)nn2)[C@H]1O [Example 23, 4-Chlorophenyl 3-deoxy-3-[4-(3,4,5-trifluorophenyl)-1H-1,2,3-triazol-1-yl]-1-thio-α-D-galactopyranoside] | 6.70
CN(C)c1cccc2cc(S(=O)(=O)[C@H]3OC(CO)[C@H](O)[C@H](n4cc(-c5cc(F)c(F)c(F)c5)nn4)C3O)ccc12 (stereo partly drawn) [Example 95, 5-Dimethylamino-naphtalen-2-yl 3-deoxy-3-[4-(3,4,5-trifluorophenyl)-1H-1,2,3-triazol-1-yl]-α-D-galactopyranosyl sulfone] | 6.02
COc1ccc(S[C@H]2OC(CO)[C@H](O)[C@H](n3cc(-c4cc(F)c(F)c(F)c4)nn3)C2O)cc1 (stereo partly drawn) [Example 7, 4-Methoxyphenyl 3-deoxy-3-[4-(3,4,5-trifluorophenyl)-1H-1,2,3-triazol-1-yl]-1-thio α-D-galactopyranoside] | 6.39
OC[C@H]1O[C@H](Oc2ccccc2)[C@H](O)[C@@H](n2cc(-c3cc(F)c(F)c(F)c3)nn2)[C@H]1O [Example 32, Phenyl 3-deoxy-3-[4-(3,4,5-trifluorophenyl)-1H-1,2,3-triazol-1-yl]-α-D-galactopyranoside] | 6.00
